Assay results from paper PMC6891286, “Towards the Development of an In vivo Chemical Probe for Cyclin G Associated Kinase (GAK)” (Molecules, 2019).

Tests used:
Experiment in all cases: KINOMEscan
Type in all cases: binding
Conditions in all cases: 35 at 1 µM; read-out: % inhibition
[1] = target: T1, ABL1(F317L)-nonphosphorylated (Homo sapiens, UniProt P00519, F317L)
T1 construct: purchased Eurofins DiscoverX (KINOMEscan)
Description: (§1) KinomeScan Assay on 35 was performed as previously described at EuroFins DiscoverX (Fremont, CA, USA).

[2] = target: T2, ABL1(Q252H)-nonphosphorylated (Homo sapiens, UniProt P00519, Q252H)
T2 construct: purchased Eurofins DiscoverX (KINOMEscan)
Description: as §1

[3] = target: T3, ABL1(Q252H)-phosphorylated (Homo sapiens, UniProt P00519, Q252H)
T3 construct: purchased Eurofins DiscoverX (KINOMEscan)
Description: as §1

AKT1 = target: T4, AKT1 (Homo sapiens, UniProt P31749)
T4 construct: purchased Eurofins DiscoverX (KINOMEscan)
Description: as §1

AKT3 = target: T5, AKT3 (Homo sapiens, UniProt Q9Y243)
T5 construct: purchased Eurofins DiscoverX (KINOMEscan)
Description: as §1

ASK1 = target: T6, ASK1 (Homo sapiens, UniProt Q99683)
T6 construct: purchased Eurofins DiscoverX (KINOMEscan)
Description: as §1

AURKC = target: T7, AURKC (Homo sapiens, UniProt Q9UQB9)
T7 construct: purchased Eurofins DiscoverX (KINOMEscan)
T7 sequence (Q9UQB9 whole entry): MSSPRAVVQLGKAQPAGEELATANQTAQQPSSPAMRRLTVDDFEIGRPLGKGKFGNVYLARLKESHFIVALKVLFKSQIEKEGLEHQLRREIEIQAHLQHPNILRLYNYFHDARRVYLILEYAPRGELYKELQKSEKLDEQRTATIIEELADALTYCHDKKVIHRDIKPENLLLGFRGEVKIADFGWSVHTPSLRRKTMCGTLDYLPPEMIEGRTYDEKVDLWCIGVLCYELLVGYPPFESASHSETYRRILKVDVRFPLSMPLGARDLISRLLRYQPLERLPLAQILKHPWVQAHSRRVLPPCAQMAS
Description: as §1

BIKE = target: T8, BIKE (Homo sapiens, UniProt Q9NSY1)
T8 construct: purchased Eurofins DiscoverX (KINOMEscan)
Description: as §1

CDC2L2 = target: T9, CDC2L2 (Homo sapiens, UniProt Q9UQ88)
T9 construct: purchased Eurofins DiscoverX (KINOMEscan)
Description: as §1

CSNK1A1L = target: T10, CSNK1A1L (Homo sapiens, UniProt Q8N752)
T10 construct: purchased Eurofins DiscoverX (KINOMEscan)
T10 sequence (Q8N752 whole entry): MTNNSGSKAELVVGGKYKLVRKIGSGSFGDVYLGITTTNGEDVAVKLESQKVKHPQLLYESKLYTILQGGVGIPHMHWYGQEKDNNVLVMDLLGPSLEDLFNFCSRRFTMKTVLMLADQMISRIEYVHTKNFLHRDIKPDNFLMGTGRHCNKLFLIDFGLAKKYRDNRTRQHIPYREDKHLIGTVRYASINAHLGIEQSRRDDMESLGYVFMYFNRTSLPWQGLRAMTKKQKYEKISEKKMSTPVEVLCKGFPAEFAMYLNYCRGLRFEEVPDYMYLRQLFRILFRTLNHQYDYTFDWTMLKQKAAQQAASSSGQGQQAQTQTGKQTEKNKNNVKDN
Description: as §1

CSNK2A1 = target: T11, CSNK2A1 (Homo sapiens, UniProt P68400)
T11 construct: purchased Eurofins DiscoverX (KINOMEscan)
Description: as §1

EPHA1 = target: T12, EPHA1 (Homo sapiens, UniProt P21709)
T12 construct: purchased Eurofins DiscoverX (KINOMEscan)
Description: as §1

EPHA4 = target: T13, EPHA4 (Homo sapiens, UniProt P54764)
T13 construct: purchased Eurofins DiscoverX (KINOMEscan)
Description: as §1

FGFR3 = target: T14, FGFR3 (Homo sapiens, UniProt P22607)
T14 construct: purchased Eurofins DiscoverX (KINOMEscan)
T14 sequence (P22607 23-806): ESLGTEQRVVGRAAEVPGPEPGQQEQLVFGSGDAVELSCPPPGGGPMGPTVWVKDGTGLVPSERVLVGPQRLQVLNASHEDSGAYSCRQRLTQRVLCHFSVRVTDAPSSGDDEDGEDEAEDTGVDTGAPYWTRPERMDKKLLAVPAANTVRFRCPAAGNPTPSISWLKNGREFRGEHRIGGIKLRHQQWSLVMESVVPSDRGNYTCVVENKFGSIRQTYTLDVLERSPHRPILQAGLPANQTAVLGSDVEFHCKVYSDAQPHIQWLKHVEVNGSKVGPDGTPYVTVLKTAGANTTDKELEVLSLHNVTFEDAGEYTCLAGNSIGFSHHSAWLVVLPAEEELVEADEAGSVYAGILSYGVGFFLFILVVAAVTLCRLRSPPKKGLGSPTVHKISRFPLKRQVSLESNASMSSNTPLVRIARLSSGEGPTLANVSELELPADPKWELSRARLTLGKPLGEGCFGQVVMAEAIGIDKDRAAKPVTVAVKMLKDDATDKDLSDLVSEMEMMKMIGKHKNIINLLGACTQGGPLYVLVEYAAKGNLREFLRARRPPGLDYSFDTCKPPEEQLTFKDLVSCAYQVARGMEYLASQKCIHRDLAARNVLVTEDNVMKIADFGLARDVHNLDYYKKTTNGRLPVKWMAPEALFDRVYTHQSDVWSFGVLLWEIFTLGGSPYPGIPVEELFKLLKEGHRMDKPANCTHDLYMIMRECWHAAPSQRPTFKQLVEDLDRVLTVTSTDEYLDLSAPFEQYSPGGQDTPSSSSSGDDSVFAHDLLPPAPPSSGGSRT
Description: as §1

FLT3(D835V) = target: T15, FLT3(D835V) (Homo sapiens, UniProt P36888, D835V)
T15 construct: purchased Eurofins DiscoverX (KINOMEscan)
Description: as §1

FYN = target: T16, FYN (Homo sapiens, UniProt P06241)
T16 construct: purchased Eurofins DiscoverX (KINOMEscan)
T16 sequence (P06241 whole entry): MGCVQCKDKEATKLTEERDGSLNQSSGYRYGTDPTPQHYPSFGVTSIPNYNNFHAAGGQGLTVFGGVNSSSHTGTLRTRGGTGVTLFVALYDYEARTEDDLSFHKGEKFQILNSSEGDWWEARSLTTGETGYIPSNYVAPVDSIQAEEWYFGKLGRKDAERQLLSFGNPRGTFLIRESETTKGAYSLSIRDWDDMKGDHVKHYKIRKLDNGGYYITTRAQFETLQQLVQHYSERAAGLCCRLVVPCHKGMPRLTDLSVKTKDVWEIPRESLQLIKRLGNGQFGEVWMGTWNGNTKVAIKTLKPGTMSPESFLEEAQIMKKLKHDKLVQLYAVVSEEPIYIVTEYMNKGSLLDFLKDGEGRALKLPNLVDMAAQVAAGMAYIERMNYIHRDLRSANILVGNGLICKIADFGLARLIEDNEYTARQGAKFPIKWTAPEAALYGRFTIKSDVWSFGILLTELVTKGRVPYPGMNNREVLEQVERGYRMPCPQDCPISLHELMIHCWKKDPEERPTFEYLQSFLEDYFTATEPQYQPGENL
Description: as §1

INSR = target: T17, INSR (Homo sapiens, UniProt P06213)
T17 construct: purchased Eurofins DiscoverX (KINOMEscan)
Description: as §1

KIT(L576P) = target: T18, KIT(L576P) (Homo sapiens, UniProt P10721, L576P)
T18 construct: purchased Eurofins DiscoverX (KINOMEscan)
T18 sequence (P10721 26-976 L576P): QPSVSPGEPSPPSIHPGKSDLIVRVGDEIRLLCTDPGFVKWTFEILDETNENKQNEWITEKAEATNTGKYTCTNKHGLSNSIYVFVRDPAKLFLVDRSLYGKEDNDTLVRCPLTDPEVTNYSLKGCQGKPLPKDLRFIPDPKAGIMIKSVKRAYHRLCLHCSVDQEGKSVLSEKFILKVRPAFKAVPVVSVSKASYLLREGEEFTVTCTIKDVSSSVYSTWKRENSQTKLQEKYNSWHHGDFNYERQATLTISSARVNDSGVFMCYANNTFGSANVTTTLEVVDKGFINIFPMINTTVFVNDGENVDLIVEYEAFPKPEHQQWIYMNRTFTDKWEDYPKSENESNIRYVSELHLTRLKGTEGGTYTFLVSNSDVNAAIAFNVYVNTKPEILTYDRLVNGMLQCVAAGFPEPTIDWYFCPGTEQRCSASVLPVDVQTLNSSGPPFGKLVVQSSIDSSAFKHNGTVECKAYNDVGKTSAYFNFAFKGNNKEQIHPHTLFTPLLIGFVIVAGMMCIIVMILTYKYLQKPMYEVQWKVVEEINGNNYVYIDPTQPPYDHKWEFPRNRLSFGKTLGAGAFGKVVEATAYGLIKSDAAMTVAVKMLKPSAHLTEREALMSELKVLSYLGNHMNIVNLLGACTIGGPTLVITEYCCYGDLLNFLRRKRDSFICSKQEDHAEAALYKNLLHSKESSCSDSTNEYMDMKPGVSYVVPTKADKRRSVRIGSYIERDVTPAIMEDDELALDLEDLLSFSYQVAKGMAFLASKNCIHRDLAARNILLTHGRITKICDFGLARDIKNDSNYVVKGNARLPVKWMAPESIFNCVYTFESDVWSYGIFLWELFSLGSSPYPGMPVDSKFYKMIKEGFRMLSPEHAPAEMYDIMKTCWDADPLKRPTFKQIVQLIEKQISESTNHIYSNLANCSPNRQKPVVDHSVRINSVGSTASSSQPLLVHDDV
Description: as §1

KIT-autoinhibited = target: T19, KIT-autoinhibited (Homo sapiens, UniProt P10721)
T19 construct: purchased Eurofins DiscoverX (KINOMEscan)
T19 sequence (P10721 26-976): as the sequence (P10721 26-976 L576P) above, with P551L counted along it
Description: as §1

LTK = target: T20, LTK (Homo sapiens, UniProt P29376)
T20 construct: purchased Eurofins DiscoverX (KINOMEscan)
Description: as §1

MARK1 = target: T21, MARK1 (Homo sapiens, UniProt Q9P0L2)
T21 construct: purchased Eurofins DiscoverX (KINOMEscan)
Description: as §1

MARK4 = target: T22, MARK4 (Homo sapiens, UniProt Q96L34)
T22 construct: purchased Eurofins DiscoverX (KINOMEscan)
Description: as §1

MEK2 = target: T23, MEK2 (Homo sapiens, UniProt P36507)
T23 construct: purchased Eurofins DiscoverX (KINOMEscan)
Description: as §1

MEK3 = target: T24, MEK3 (Homo sapiens, UniProt P46734)
T24 construct: purchased Eurofins DiscoverX (KINOMEscan)
Description: as §1

MET(Y1235D) = target: T25, MET(Y1235D) (Homo sapiens, UniProt P08581, Y1235D)
T25 construct: purchased Eurofins DiscoverX (KINOMEscan)
Description: as §1

MKNK2 = target: T26, MKNK2 (Homo sapiens, UniProt Q9HBH9)
T26 construct: purchased Eurofins DiscoverX (KINOMEscan)
Description: as §1

MST1R = target: T27, MST1R (Homo sapiens, UniProt Q04912)
T27 construct: purchased Eurofins DiscoverX (KINOMEscan)
Description: as §1

MTOR = target: T28, MTOR (Homo sapiens, UniProt P42345)
T28 construct: purchased Eurofins DiscoverX (KINOMEscan)
Description: as §1

MUSK = target: T29, MUSK (Homo sapiens, UniProt O15146)
T29 construct: purchased Eurofins DiscoverX (KINOMEscan)
Description: as §1

NDR1 = target: T30, NDR1 (Homo sapiens, UniProt Q15208)
T30 construct: purchased Eurofins DiscoverX (KINOMEscan)
Description: as §1

NIM1 = target: T31, NIM1 (Homo sapiens, UniProt Q8IY84)
T31 construct: purchased Eurofins DiscoverX (KINOMEscan)
Description: as §1

OSR1 = target: T32, OSR1 (Homo sapiens, UniProt O95747)
T32 construct: purchased Eurofins DiscoverX (KINOMEscan)
T32 sequence (O95747 whole entry): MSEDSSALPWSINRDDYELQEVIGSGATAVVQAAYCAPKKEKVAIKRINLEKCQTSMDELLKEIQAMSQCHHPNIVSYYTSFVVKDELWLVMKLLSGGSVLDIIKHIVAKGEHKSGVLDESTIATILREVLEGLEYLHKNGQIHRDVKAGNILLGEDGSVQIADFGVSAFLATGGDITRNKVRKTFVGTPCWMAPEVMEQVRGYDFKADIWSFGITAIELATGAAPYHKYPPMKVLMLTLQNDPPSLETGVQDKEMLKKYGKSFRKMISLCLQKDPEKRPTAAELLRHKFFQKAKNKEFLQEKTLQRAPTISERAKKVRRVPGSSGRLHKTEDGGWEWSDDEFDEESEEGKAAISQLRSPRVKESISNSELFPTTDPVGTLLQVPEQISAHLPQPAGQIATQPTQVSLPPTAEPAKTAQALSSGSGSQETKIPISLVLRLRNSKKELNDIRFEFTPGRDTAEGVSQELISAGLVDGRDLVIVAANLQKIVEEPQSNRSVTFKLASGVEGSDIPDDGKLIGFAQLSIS
Description: as §1

PIK3CA(E542K) = target: T33, PIK3CA(E542K) (Homo sapiens, UniProt P42336, E542K)
T33 construct: purchased Eurofins DiscoverX (KINOMEscan)
Description: as §1

PIK3CA(E545K) = target: T34, PIK3CA(E545K) (Homo sapiens, UniProt P42336, E545K)
T34 construct: purchased Eurofins DiscoverX (KINOMEscan)
Description: as §1

PIK3CA(H1047L) = target: T35, PIK3CA(H1047L) (Homo sapiens, UniProt P42336, H1047L)
T35 construct: purchased Eurofins DiscoverX (KINOMEscan)
Description: as §1

PIP5K1C = target: T36, PIP5K1C (Homo sapiens, UniProt O60331)
T36 construct: purchased Eurofins DiscoverX (KINOMEscan)
Description: as §1

PLK4 = target: T37, PLK4 (Homo sapiens, UniProt O00444)
T37 construct: purchased Eurofins DiscoverX (KINOMEscan)
Description: as §1

[4] = target: T38, RSK4(Kin.Dom.2-C-terminal) (Homo sapiens, UniProt Q9UK32)
T38 construct: RSK4(Kin.Dom.2-C-terminal); purchased Eurofins DiscoverX (KINOMEscan)
T38 sequence (Q9UK32 401-745): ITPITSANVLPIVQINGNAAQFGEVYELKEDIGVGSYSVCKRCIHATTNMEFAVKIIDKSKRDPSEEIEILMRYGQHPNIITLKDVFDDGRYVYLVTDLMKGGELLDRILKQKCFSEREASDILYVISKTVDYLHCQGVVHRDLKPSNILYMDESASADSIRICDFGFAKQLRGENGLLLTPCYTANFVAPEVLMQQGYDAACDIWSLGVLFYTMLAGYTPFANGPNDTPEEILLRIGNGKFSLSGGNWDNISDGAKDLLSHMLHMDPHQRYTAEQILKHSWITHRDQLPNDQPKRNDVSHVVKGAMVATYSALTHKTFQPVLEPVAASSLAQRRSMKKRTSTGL
Description: as §1

SRPK2 = target: T39, SRPK2 (Homo sapiens, UniProt P78362)
T39 construct: purchased Eurofins DiscoverX (KINOMEscan)
Description: as §1

TEC = target: T40, TEC (Homo sapiens, UniProt P42680)
T40 construct: purchased Eurofins DiscoverX (KINOMEscan)
T40 sequence (P42680 whole entry): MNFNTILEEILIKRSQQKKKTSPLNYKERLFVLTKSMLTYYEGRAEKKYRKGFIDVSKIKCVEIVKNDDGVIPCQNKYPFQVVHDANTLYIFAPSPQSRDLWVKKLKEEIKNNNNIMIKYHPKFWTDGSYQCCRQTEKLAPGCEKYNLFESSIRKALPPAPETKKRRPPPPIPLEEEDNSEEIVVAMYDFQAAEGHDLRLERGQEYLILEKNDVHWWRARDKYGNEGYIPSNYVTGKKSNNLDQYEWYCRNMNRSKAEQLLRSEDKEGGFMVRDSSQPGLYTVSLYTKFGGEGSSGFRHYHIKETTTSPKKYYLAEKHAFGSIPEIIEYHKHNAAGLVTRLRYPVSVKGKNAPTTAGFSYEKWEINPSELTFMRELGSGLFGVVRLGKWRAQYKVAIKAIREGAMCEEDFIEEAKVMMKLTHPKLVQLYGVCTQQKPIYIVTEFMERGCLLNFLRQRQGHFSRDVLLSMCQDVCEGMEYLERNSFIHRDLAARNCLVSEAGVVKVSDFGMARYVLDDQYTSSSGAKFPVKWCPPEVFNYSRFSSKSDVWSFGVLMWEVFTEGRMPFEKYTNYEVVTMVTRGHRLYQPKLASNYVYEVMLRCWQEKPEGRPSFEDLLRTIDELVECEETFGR
Description: as §1

VRK2 = target: T41, VRK2 (Homo sapiens, UniProt Q86Y07)
T41 construct: purchased Eurofins DiscoverX (KINOMEscan)
Description: as §1

p38-delta = target: T42, p38-delta (Homo sapiens, UniProt O15264)
T42 construct: purchased Eurofins DiscoverX (KINOMEscan)
T42 sequence (O15264 whole entry): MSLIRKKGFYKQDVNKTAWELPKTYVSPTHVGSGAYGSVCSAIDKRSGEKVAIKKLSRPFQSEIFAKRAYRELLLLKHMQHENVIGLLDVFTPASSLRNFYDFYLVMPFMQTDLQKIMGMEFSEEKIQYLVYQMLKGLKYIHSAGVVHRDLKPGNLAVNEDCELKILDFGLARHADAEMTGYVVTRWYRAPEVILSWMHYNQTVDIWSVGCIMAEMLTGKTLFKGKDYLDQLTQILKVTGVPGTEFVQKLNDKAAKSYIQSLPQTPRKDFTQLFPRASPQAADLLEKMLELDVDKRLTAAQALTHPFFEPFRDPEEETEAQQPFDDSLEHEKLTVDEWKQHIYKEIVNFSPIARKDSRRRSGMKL
Description: as §1

For Brc1ccc2nccc(Nc3ccc4cn[nH]c4c3)c2c1 [Compound 35, 6-Bromo-N-(1H-indazol-6-yl)quinolin-4-amine], the activity at 1 µM [1] was 78%, the activity at 1 µM [2] was 58% and the activity at 1 µM [3] was 100%. The activity at 1 µM (AKT1) was 100%, the activity at 1 µM (AKT3) was 100% and the activity at 1 µM (ASK1) was 100%. It also gave an activity at 1 µM (AURKC) of 100%, an activity at 1 µM (BIKE) of 100% and an activity at 1 µM (CDC2L2) of 70%. For the same compound, the activity at 1 µM (CSNK1A1L) was 96%, the activity at 1 µM (CSNK2A1) was 100% and the activity at 1 µM (EPHA1) was 100%. It also gave an activity at 1 µM (EPHA4) of 100%, an activity at 1 µM (FGFR3) of 100% and an activity at 1 µM (FLT3(D835V)) of 100%. The activity at 1 µM (FYN) was 100%, the activity at 1 µM (INSR) was 99% and the activity at 1 µM (KIT(L576P)) was 100%. It also gave an activity at 1 µM (KIT-autoinhibited) of 100%, an activity at 1 µM (LTK) of 100% and an activity at 1 µM (MARK1) of 100%. For the same compound, the activity at 1 µM (MARK4) was 100%, the activity at 1 µM (MEK2) was 50% and the activity at 1 µM (MEK3) was 86%. It also gave an activity at 1 µM (MET(Y1235D)) of 100%, an activity at 1 µM (MKNK2) of 63% and an activity at 1 µM (MST1R) of 100%. For the same compound, the activity at 1 µM (MTOR) was 100%, the activity at 1 µM (MUSK) was 100% and the activity at 1 µM (NDR1) was 69%. For the same compound, the activity at 1 µM (NIM1) was 88%, the activity at 1 µM (OSR1) was 76% and the activity at 1 µM (PIK3CA(E542K)) was 100%. It also gave an activity at 1 µM (PIK3CA(E545K)) of 66%, an activity at 1 µM (PIK3CA(H1047L)) of 87% and an activity at 1 µM (PIP5K1C) of 95%. It also gave an activity at 1 µM (PLK4) of 100%, an activity at 1 µM [4] of 81% and an activity at 1 µM (SRPK2) of 100%. It also gave an activity at 1 µM (TEC) of 100%, an activity at 1 µM (VRK2) of 100% and an activity at 1 µM (p38-delta) of 100%.
